Measurements: patent US4267112A, “Antibiotic U-58,431” (The Upjohn Company, priority 1979, dated 1981)

Columns and labels:
[1] = system: Streptococcus hemolyticus UC 152; experiment: antibacterial broth MIC assay; format: cell-based; conditions: Brain Heart Infusion Broth, 42 hours
Protocol: (§1) The antibacterial assay is a standard microbiological broth assay. The MIC is determined by standard methods using two-fold dilutions of the antibiotic in Brian Heart Infusion Broth (Difco Lab., Detroit, Michigan). The inocula are overnight cultures of the test organisms, diluted so that the final population contains approximately 10^5 cells/ml. The tubes are incubated at 28° to 37° C. for 42 hours. The lowest antibiotic concentration which allows no growth=MIC or minimum inhibitory concentration.

[2] = system: Pseudomonas aeruginosa UC 95; experiment: antibacterial broth MIC assay; format: cell-based; conditions: Brain Heart Infusion Broth, 42 hours
Protocol: as §1

[3] = system: Streptococcus faecalis UC 694; experiment: antibacterial broth MIC assay; format: cell-based; conditions: Brain Heart Infusion Broth, 42 hours
Protocol: as §1

[4] = system: Staphylococcus aureus UC 570; experiment: antibacterial broth MIC assay; format: cell-based; conditions: Brain Heart Infusion Broth, 42 hours
Protocol: as §1

[5] = system: Staphylococcus aureus 284 UC 76; experiment: antibacterial broth MIC assay; format: cell-based; conditions: Brain Heart Infusion Broth, 42 hours
Protocol: as §1

Escherichia coli UC 45 = experiment: antibacterial broth MIC assay; format: cell-based; conditions: Brain Heart Infusion Broth, 42 hours
Protocol: as §1

[6] = system: Klebsiella pneumoniae UC 58; experiment: antibacterial broth MIC assay; format: cell-based; conditions: Brain Heart Infusion Broth, 42 hours
Protocol: as §1

Proteus vulgaris UC 93 = experiment: antibacterial broth MIC assay; format: cell-based; conditions: Brain Heart Infusion Broth, 42 hours
Protocol: as §1

[7] = system: Staphylococcus aureus UC 746; experiment: antibacterial broth MIC assay; format: cell-based; conditions: Brain Heart Infusion Broth, 42 hours
Protocol: as §1

[8] = system: Salmonella schottmuelleri UC 126; experiment: antibacterial broth MIC assay; format: cell-based; conditions: Brain Heart Infusion Broth, 42 hours
Protocol: as §1

[9] = system: Diplococcus pneumoniae UC 41; experiment: antibacterial broth MIC assay; format: cell-based; conditions: Brain Heart Infusion Broth, 42 hours
Protocol: as §1

[10] = system: various Gram-positive and Gram-negative bacteria; experiment: antibacterial activity (general statement); format: cell-based
Protocol: as §1

solubilities = format: physicochemical
fungi = experiment: antifungal activity (general statement); format: cell-based
Protocol: (§2) An agar dilution method is used. 100 mg amounts of material is solubilized in 1 ml of dimethylformamide (DMF) and diluted to 10 ml with mycophil Broth (BBL labs.) unless completely soluble in water. The material to be tested is incorporated in melted (48° C.) mycophil Agar at concentrations of 1000, 100, 10 and 1 mcg/ml. Fifteen ml of agar is pipetted into a petri dish. After solidification, the surface is streaked with agar spore suspensions of human fungal pathogens. The suspensions are made by adding 10 ml sterile distilled water to agar slants of the test organisms. The slant surface is scraped with a sterile inoculating needle, and 0.5 ml of this suspension is added to 9.5 ml melted (48° C.) mycophil Agar in a stamp streak well. (Each stamp streak base has 6 wells.)
The streaked plates are incubated at 28° C. for 72 hours at which time results are recorded. Readings are by visual observation.

[11] = system: Cryptococcus neoformans UC 1139; experiment: antifungal agar dilution test; format: cell-based; design: key: -: inhibition; +: no inhibition; conditions: 28° C., 72 hours
Protocol: as §2, with “The antifungal spectrum for antibiotic U-58,431 was conducted on a standard agar […] assay. The results are as follows: An” for “An”, “slants” left out, “wells.) The streaked plates are incubated at 28° C. for 72 hours at which time results are recorded. Readings are by visual observation.” for “wells.)”

[12] = system: Sporotrichum schenckii UC 1364; experiment: antifungal agar dilution test; format: cell-based; design: key: -: inhibition; +: no inhibition; conditions: 28° C., 72 hours
Protocol: as §2, with “The antifungal spectrum for antibiotic U-58,431 was conducted on a standard agar […] assay. The results are as follows: An” for “An”, “slants” left out, “wells.) The streaked plates are incubated at 28° C. for 72 hours at which time results are recorded. Readings are by visual observation.” for “wells.)”

[13] = system: Trichophyton violaceum UC 1459; experiment: antifungal agar dilution test; format: cell-based; design: key: -: inhibition; +: no inhibition; conditions: 28° C., 72 hours
Protocol: as §2, with “The antifungal spectrum for antibiotic U-58,431 was conducted on a standard agar […] assay. The results are as follows: An” for “An”, “slants” left out, “wells.) The streaked plates are incubated at 28° C. for 72 hours at which time results are recorded. Readings are by visual observation.” for “wells.)”

[14] = system: Trichophyton asteroides UC 4775; experiment: antifungal agar dilution test; format: cell-based; design: key: -: inhibition; +: no inhibition; conditions: 28° C., 72 hours
Protocol: as §2, with “The antifungal spectrum for antibiotic U-58,431 was conducted on a standard agar […] assay. The results are as follows: An” for “An”, “slants” left out, “wells.) The streaked plates are incubated at 28° C. for 72 hours at which time results are recorded. Readings are by visual observation.” for “wells.)”

[15] = system: Trichophyton rubrum UC 1458; experiment: antifungal agar dilution test; format: cell-based; design: key: -: inhibition; +: no inhibition; conditions: 28° C., 72 hours
Protocol: as §2, with “The antifungal spectrum for antibiotic U-58,431 was conducted on a standard agar […] assay. The results are as follows: An” for “An”, “slants” left out, “wells.) The streaked plates are incubated at 28° C. for 72 hours at which time results are recorded. Readings are by visual observation.” for “wells.)”

[16] = system: Nocardia asteroides UC 2052; experiment: antifungal agar dilution test; format: cell-based; design: key: -: inhibition; +: no inhibition; conditions: 28° C., 72 hours
Protocol: as §2, with “The antifungal spectrum for antibiotic U-58,431 was conducted on a standard agar […] assay. The results are as follows: An” for “An”, “slants” left out, “wells.) The streaked plates are incubated at 28° C. for 72 hours at which time results are recorded. Readings are by visual observation.” for “wells.)”

[17] = system: Trichophyton mentagrophytes UC 4860; experiment: antifungal agar dilution test; format: cell-based; design: key: -: inhibition; +: no inhibition; conditions: 28° C., 72 hours
Protocol: as §2, with “The antifungal spectrum for antibiotic U-58,431 was conducted on a standard agar […] assay. The results are as follows: An” for “An”, “slants” left out, “wells.) The streaked plates are incubated at 28° C. for 72 hours at which time results are recorded. Readings are by visual observation.” for “wells.)”

[18] = system: Hormodendrum compactum UC 1222; experiment: antifungal agar dilution test; format: cell-based; design: key: -: inhibition; +: no inhibition; conditions: 28° C., 72 hours
Protocol: as §2, with “The antifungal spectrum for antibiotic U-58,431 was conducted on a standard agar […] assay. The results are as follows: An” for “An”, “slants” left out, “wells.) The streaked plates are incubated at 28° C. for 72 hours at which time results are recorded. Readings are by visual observation.” for “wells.)”

[19] = system: Blastomyces dermatidis UC 1466; experiment: antifungal agar dilution test; format: cell-based; design: key: -: inhibition; +: no inhibition; conditions: 28° C., 72 hours
Protocol: as §2, with “The antifungal spectrum for antibiotic U-58,431 was conducted on a standard agar […] assay. The results are as follows: An” for “An”, “slants” left out, “wells.) The streaked plates are incubated at 28° C. for 72 hours at which time results are recorded. Readings are by visual observation.” for “wells.)”

Candida albicans UC 7164 = experiment: antifungal agar dilution test; format: cell-based; design: key: -: inhibition; +: no inhibition; conditions: 28° C., 72 hours
Protocol: as §2, with “The antifungal spectrum for antibiotic U-58,431 was conducted on a standard agar […] assay. The results are as follows: An” for “An”, “slants” left out, “wells.) The streaked plates are incubated at 28° C. for 72 hours at which time results are recorded. Readings are by visual observation.” for “wells.)”

[20] = system: Trichophyton mentagrophytes UC 4797; experiment: antifungal agar dilution test; format: cell-based; design: key: -: inhibition; +: no inhibition; conditions: 28° C., 72 hours
Protocol: as §2, with “The antifungal spectrum for antibiotic U-58,431 was conducted on a standard agar […] assay. The results are as follows: An” for “An”, “slants” left out, “wells.) The streaked plates are incubated at 28° C. for 72 hours at which time results are recorded. Readings are by visual observation.” for “wells.)”

[21] = system: Cryptococcus neoformans UC 4869; experiment: antifungal agar dilution test; format: cell-based; design: key: -: inhibition; +: no inhibition; conditions: 28° C., 72 hours
Protocol: as §2, with “The antifungal spectrum for antibiotic U-58,431 was conducted on a standard agar […] assay. The results are as follows: An” for “An”, “slants” left out, “wells.) The streaked plates are incubated at 28° C. for 72 hours at which time results are recorded. Readings are by visual observation.” for “wells.)”

Candida albicans UC 7163 = experiment: antifungal agar dilution test; format: cell-based; design: key: -: inhibition; +: no inhibition; conditions: 28° C., 72 hours
Protocol: as §2, with “The antifungal spectrum for antibiotic U-58,431 was conducted on a standard agar […] assay. The results are as follows: An” for “An”, “slants” left out, “wells.) The streaked plates are incubated at 28° C. for 72 hours at which time results are recorded. Readings are by visual observation.” for “wells.)”

Geotrichum sp. UC 1207 = experiment: antifungal agar dilution test; format: cell-based; design: key: -: inhibition; +: no inhibition; conditions: 28° C., 72 hours
Protocol: as §2, with “The antifungal spectrum for antibiotic U-58,431 was conducted on a standard agar […] assay. The results are as follows: An” for “An”, “slants” left out, “wells.) The streaked plates are incubated at 28° C. for 72 hours at which time results are recorded. Readings are by visual observation.” for “wells.)”

P. vulgaris = experiment: activity against P. vulgaris (general statement); format: cell-based
Protocol: as §1

C[C@H]1O[C@@H]2C3=C(C(=O)C(=N)C(C(N)=O)=C3O)[C@@]1(O)C[C@H]2O [U-58,431]
1.0 µg/mL: Minimum Inhibitory Concentration [9]
+: inhibition at indicated concentration ([11]; 1 mcg/ml) | inhibition at indicated concentration ([11]; 10 mcg/ml) | inhibition at indicated concentration ([11]; 100 mcg/ml) | inhibition at indicated concentration ([11]; 1000 mcg/ml) | inhibition at indicated concentration ([12]; 1 mcg/ml) | inhibition at indicated concentration ([12]; 10 mcg/ml) | inhibition at indicated concentration ([12]; 100 mcg/ml) | inhibition at indicated concentration ([12]; 1000 mcg/ml) | inhibition at indicated concentration ([13]; 1 mcg/ml) | inhibition at indicated concentration ([13]; 10 mcg/ml) | inhibition at indicated concentration ([13]; 100 mcg/ml) | inhibition at indicated concentration ([13]; 1000 mcg/ml) | inhibition at indicated concentration ([14]; 1 mcg/ml) | inhibition at indicated concentration ([14]; 10 mcg/ml) | inhibition at indicated concentration ([14]; 100 mcg/ml) | inhibition at indicated concentration ([14]; 1000 mcg/ml) | inhibition at indicated concentration ([15]; 1 mcg/ml) | inhibition at indicated concentration ([15]; 10 mcg/ml) | inhibition at indicated concentration ([15]; 100 mcg/ml) | inhibition at indicated concentration ([16]; 1 mcg/ml) | inhibition at indicated concentration ([16]; 10 mcg/ml) | inhibition at indicated concentration ([16]; 100 mcg/ml) | inhibition at indicated concentration ([17]; 1 mcg/ml) | inhibition at indicated concentration ([17]; 10 mcg/ml) | inhibition at indicated concentration ([17]; 100 mcg/ml) | inhibition at indicated concentration ([17]; 1000 mcg/ml) | inhibition at indicated concentration ([18]; 1 mcg/ml) | inhibition at indicated concentration ([18]; 10 mcg/ml) | inhibition at indicated concentration ([18]; 100 mcg/ml) | inhibition at indicated concentration ([18]; 1000 mcg/ml) | inhibition at indicated concentration ([19]; 1 mcg/ml) | inhibition at indicated concentration ([19]; 10 mcg/ml) | inhibition at indicated concentration ([19]; 100 mcg/ml) | inhibition at indicated concentration ([19]; 1000 mcg/ml) | inhibition at indicated concentration (Candida albicans UC 7164; 1 mcg/ml) | inhibition at indicated concentration (Candida albicans UC 7164; 10 mcg/ml) | inhibition at indicated concentration (Candida albicans UC 7164; 100 mcg/ml) | inhibition at indicated concentration (Candida albicans UC 7164; 1000 mcg/ml) | inhibition at indicated concentration ([20]; 1 mcg/ml) | inhibition at indicated concentration ([20]; 10 mcg/ml) | inhibition at indicated concentration ([20]; 100 mcg/ml) | inhibition at indicated concentration ([21]; 1 mcg/ml) | inhibition at indicated concentration ([21]; 10 mcg/ml) | inhibition at indicated concentration ([21]; 100 mcg/ml) | inhibition at indicated concentration ([21]; 1000 mcg/ml) | inhibition at indicated concentration (Candida albicans UC 7163; 1 mcg/ml) | inhibition at indicated concentration (Candida albicans UC 7163; 10 mcg/ml) | inhibition at indicated concentration (Candida albicans UC 7163; 100 mcg/ml) | inhibition at indicated concentration (Candida albicans UC 7163; 1000 mcg/ml) | inhibition at indicated concentration (Geotrichum sp. UC 1207; 1 mcg/ml) | inhibition at indicated concentration (Geotrichum sp. UC 1207; 10 mcg/ml) | inhibition at indicated concentration (Geotrichum sp. UC 1207; 100 mcg/ml) | inhibition at indicated concentration (Geotrichum sp. UC 1207; 1000 mcg/ml)
slightly soluble: solubility (solubilities; chloroform) | solubility (solubilities; cold methylene chloride)
active: activity against Gram-positive and Gram-negative bacteria [10] | activity against fungi (fungi) | activity against P. vulgaris (P. vulgaris)
62.5 µg/mL: Minimum Inhibitory Concentration [8]
250 µg/mL: Minimum Inhibitory Concentration [3] | Minimum Inhibitory Concentration (Escherichia coli UC 45) | Minimum Inhibitory Concentration (Proteus vulgaris UC 93)
125 µg/mL: Minimum Inhibitory Concentration [1] | Minimum Inhibitory Concentration [2] | Minimum Inhibitory Concentration [4] | Minimum Inhibitory Concentration [5] | Minimum Inhibitory Concentration [6] | Minimum Inhibitory Concentration [7]
-: inhibition at indicated concentration ([15]; 1000 mcg/ml) | inhibition at indicated concentration ([16]; 1000 mcg/ml) | inhibition at indicated concentration ([20]; 1000 mcg/ml)
soluble: solubility (solubilities; ethanol) | solubility (solubilities; methanol) | solubility (solubilities; water)
